Test results as given in ChEMBL document CHEMBL5537133, “Rational design and optimization of novel 4-methyl quinazoline derivatives as PI3K/HDAC dual inhibitors with benzamide as zinc binding moiety for the treatment of acute myeloid leukemia” (Eur J Med Chem, 2024).
pIC50: −log10 of the molar value. One block for each compound: values may come before it.

Assays:
MV4-11 [1] = experiment: Antiproliferative activity against human MV4-11 cells assessed as reduction in cell viability incubated for 72 hrs by CCK-8 assay; format: functional, cell-based; conditions: MV4-11, 72 h
[2] = molecular target: Phosphatidylinositol 4,5-bisphosphate 3-kinase catalytic subunit alpha isoform (Homo sapiens, UniProt P42336)
Sequence of Phosphatidylinositol 4,5-bisphosphate 3-kinase catalytic subunit alpha isoform (P42336 whole entry, canonical isoform): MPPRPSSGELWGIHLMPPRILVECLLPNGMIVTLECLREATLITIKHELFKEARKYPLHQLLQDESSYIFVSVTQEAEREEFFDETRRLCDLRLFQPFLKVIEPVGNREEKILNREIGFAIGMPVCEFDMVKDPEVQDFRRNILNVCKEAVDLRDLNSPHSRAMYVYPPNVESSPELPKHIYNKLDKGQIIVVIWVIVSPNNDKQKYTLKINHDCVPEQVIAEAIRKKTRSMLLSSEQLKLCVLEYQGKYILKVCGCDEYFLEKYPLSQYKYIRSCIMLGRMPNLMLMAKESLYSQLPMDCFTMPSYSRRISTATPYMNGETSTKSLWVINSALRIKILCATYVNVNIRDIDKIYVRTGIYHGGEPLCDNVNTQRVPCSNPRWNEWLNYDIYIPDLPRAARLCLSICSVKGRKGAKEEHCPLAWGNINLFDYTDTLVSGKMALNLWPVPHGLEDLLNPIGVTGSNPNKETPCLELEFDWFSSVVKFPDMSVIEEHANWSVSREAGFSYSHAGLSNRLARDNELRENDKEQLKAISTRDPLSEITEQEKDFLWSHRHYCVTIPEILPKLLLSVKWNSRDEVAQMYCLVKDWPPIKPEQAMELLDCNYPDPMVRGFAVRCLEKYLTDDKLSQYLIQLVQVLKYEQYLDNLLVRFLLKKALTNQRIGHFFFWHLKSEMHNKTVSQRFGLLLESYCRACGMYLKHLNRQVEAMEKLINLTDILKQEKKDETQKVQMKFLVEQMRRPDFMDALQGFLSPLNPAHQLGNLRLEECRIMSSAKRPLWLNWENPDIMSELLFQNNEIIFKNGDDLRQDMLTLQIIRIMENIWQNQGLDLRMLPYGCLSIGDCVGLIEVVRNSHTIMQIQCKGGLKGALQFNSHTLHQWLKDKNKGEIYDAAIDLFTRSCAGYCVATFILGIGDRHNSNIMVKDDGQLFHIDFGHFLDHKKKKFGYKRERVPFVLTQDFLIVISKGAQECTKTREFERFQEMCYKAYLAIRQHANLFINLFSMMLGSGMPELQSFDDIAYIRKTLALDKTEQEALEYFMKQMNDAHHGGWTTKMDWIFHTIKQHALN
Description: Inhibition of PI3Kalpha (unknown origin) using PIP2 as substrate incubated for 1 hr in presence of ATP by ADP-Glo assay

Histone deacetylase 1 = Histone deacetylase 1 (Homo sapiens, UniProt Q13547)
Sequence of Histone deacetylase 1 (Q13547 whole entry, canonical isoform): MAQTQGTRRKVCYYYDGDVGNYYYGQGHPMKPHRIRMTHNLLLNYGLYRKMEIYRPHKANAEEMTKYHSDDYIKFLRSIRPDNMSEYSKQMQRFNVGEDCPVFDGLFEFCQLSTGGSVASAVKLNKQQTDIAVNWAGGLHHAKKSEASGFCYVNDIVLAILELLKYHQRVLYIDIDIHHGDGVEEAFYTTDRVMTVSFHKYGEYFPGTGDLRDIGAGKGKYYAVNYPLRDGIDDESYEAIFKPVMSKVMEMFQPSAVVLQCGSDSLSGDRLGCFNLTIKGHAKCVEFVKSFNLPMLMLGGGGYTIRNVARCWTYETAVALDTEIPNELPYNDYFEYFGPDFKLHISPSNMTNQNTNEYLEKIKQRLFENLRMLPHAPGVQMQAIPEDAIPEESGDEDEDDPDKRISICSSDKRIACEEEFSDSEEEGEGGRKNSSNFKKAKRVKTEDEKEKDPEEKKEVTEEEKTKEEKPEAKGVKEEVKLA
Description: Inhibition of C-terminal 6His-FLAG-tagged human recombinant HDAC1 (1 to 482 residues) expressed in Sf9 cells using Ac-peptide as substrate preincubated for 15 mins followed by substrate addition and measured after 1 hr by plate reader analysis

[3] = molecular target: Phosphatidylinositol 4,5-bisphosphate 3-kinase catalytic subunit beta isoform (Homo sapiens, UniProt P42338); experiment: Inhibition of PI3Kbeta (unknown origin) using PIP2 as substrate incubated for 1 hr in presence of ATP by ADP-Glo assay
Sequence of Phosphatidylinositol 4,5-bisphosphate 3-kinase catalytic subunit beta isoform (P42338 whole entry, canonical isoform): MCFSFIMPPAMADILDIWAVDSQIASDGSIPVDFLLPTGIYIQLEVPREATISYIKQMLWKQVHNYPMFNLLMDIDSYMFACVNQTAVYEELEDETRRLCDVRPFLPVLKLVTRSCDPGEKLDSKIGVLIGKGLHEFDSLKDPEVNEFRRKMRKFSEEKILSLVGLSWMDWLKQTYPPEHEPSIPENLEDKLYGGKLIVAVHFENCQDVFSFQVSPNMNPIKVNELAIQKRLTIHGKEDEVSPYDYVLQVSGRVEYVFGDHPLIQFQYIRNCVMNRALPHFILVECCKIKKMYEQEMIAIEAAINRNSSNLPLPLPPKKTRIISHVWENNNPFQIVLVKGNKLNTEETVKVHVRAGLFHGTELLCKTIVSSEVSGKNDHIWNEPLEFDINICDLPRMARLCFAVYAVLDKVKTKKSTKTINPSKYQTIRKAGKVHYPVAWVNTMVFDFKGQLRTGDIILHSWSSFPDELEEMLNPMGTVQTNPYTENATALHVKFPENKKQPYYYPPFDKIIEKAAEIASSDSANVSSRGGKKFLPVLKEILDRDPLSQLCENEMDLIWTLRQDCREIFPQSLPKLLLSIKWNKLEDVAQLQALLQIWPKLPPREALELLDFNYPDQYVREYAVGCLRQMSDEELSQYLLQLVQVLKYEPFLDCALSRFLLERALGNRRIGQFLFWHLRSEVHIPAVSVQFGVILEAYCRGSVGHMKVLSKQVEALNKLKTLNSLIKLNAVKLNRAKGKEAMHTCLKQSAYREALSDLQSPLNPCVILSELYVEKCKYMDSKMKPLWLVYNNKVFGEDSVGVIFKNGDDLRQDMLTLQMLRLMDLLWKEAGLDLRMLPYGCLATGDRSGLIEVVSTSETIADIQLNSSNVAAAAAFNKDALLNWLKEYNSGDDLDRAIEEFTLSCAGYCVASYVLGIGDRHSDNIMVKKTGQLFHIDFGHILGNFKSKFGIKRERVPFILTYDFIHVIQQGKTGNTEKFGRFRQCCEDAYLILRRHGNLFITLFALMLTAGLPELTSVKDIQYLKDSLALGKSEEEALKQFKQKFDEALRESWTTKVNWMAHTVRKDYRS

[4] = molecular target: Phosphatidylinositol 4,5-bisphosphate 3-kinase catalytic subunit gamma isoform (Homo sapiens, UniProt P48736); experiment: Inhibition of PI3Kgamma (unknown origin) using PIP2 as substrate incubated for 1 hr in presence of ATP by ADP-Glo assay
Sequence of Phosphatidylinositol 4,5-bisphosphate 3-kinase catalytic subunit gamma isoform (P48736 whole entry, canonical isoform): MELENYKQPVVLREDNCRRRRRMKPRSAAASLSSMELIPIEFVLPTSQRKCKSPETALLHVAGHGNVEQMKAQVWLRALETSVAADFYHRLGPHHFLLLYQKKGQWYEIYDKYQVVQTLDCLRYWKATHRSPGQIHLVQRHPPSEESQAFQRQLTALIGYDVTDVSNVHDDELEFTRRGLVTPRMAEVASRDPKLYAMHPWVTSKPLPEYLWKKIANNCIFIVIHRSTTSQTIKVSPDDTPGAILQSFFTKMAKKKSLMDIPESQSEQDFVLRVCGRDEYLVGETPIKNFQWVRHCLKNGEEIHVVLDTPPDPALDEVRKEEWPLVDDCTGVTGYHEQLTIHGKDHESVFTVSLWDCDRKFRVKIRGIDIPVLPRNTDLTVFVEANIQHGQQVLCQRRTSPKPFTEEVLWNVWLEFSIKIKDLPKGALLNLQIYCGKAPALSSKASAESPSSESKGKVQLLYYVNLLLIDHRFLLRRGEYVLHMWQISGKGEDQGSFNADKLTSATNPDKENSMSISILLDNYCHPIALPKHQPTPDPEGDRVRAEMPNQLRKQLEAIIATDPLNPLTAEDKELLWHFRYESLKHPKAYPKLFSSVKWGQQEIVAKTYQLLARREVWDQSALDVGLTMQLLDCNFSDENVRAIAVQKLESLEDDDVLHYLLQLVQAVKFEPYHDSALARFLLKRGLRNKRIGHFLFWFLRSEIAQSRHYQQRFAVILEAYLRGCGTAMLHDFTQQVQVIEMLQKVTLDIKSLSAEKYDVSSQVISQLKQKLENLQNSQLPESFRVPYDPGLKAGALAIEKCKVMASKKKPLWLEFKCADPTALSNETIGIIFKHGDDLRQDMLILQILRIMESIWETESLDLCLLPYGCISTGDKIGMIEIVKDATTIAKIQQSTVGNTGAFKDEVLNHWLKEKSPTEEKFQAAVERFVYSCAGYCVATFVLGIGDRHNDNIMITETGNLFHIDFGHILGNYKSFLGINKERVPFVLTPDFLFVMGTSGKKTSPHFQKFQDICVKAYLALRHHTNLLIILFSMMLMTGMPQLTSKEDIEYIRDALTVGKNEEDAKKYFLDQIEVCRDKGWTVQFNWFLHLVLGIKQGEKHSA

[5] = molecular target: Phosphatidylinositol 4,5-bisphosphate 3-kinase catalytic subunit delta isoform (Homo sapiens, UniProt O00329); experiment: Inhibition of PI3Kdelta (unknown origin) using PIP2 as substrate incubated for 1 hr in presence of ATP by ADP-Glo assay
[6] = molecular target: Serine/threonine-protein kinase mTOR (Homo sapiens, UniProt P42345); experiment: Inhibition of N-terminal FLAG-tagged recombinant human mTOR (1362 to end residues) using ULight-4E-BP1 (Thr37/46) peptide as substrate incubated for 30 mins in presence of ATP by LANCE ultra assay
Histone deacetylase 2 = Histone deacetylase 2 (Homo sapiens, UniProt Q92769); experiment: Inhibition of C-terminal His6-FLAG-tagged human recombinant HDAC2 (1 to 488 residues) expressed in Sf9 cells using Ac-peptide as substrate preincubated for 15 mins followed by substrate addition and measured after 1 hr by plate reader analysis
Histone deacetylase 3 = Histone deacetylase 3 (Homo sapiens, UniProt O15379); experiment: Inhibition of HDAC3 (unknown origin)
Histone deacetylase 4 = Histone deacetylase 4 (Homo sapiens, UniProt P56524); experiment: Inhibition of N-terminal GST-tagged and C-terminal His-tagged human HDAC4 (627 to 1084 end residues) expressed in baculovirus infected Sf9 cells using Ac-peptide as substrate incubated for 1 hr by plate reader analysis
[7] = molecular target: Protein deacetylase HDAC6 (Homo sapiens, UniProt Q9UBN7); experiment: Inhibition of HDAC6 (unknown origin)
Sequence of Protein deacetylase HDAC6 (Q9UBN7 whole entry): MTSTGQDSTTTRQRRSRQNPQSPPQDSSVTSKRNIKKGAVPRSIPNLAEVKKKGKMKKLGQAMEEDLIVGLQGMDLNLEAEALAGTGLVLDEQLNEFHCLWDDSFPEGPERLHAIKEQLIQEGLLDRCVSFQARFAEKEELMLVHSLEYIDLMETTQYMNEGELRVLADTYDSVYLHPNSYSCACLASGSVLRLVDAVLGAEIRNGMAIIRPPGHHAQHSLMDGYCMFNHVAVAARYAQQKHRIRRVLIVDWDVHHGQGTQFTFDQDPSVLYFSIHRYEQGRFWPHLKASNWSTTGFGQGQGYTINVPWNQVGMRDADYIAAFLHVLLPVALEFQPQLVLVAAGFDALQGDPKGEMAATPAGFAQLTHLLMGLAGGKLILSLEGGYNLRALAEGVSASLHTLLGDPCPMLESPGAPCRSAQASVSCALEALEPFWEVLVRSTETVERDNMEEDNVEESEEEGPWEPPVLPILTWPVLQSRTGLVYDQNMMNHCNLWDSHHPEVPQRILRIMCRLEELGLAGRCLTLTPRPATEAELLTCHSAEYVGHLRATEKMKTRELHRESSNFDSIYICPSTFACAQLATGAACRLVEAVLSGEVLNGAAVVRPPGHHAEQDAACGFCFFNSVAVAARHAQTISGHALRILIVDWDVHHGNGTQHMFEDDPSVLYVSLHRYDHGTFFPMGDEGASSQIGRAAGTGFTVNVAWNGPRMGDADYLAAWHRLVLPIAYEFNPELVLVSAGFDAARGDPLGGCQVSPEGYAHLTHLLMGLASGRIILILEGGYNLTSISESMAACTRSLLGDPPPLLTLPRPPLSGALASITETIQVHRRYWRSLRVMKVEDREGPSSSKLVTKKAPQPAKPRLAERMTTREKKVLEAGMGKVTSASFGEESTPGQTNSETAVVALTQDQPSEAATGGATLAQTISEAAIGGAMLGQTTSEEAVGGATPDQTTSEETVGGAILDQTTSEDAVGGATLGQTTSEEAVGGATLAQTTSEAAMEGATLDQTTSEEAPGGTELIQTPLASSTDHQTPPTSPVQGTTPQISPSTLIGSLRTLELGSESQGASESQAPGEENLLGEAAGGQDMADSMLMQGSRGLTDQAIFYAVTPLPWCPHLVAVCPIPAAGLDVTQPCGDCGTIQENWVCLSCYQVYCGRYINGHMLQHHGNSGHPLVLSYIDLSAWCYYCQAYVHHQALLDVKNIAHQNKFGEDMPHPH

Histone deacetylase 8 = Histone deacetylase 8 (Homo sapiens, UniProt Q9BY41); experiment: Inhibition of C-terminal His-tagged human recombinant HDAC8 (1 to 377 end residues) expressed in Sf9 cells using Ac-peptide as substrate incubated for 1 hr by plate reader analysis
Histone deacetylase 11 = Histone deacetylase 11 (Homo sapiens, UniProt Q96DB2); experiment: Inhibition of human HDAC11 (1 to 347 end residues) expressed in Sf9 cells using Ac-peptide as substrate incubated for 1 hr by plate reader analysis
NB-4 = experiment: Antiproliferative activity against human NB4 cells assessed as reduction in cell viability incubated for 72 hrs by CCK-8 assay; format: functional, cell-based; conditions: NB-4, 72 h
HL-60 = experiment: Antiproliferative activity against human HL-60 cells assessed as reduction in cell viability incubated for 72 hrs by CCK-8 assay; format: functional, cell-based; conditions: HL-60, 72 h
DOHH-2 = experiment: Antiproliferative activity against human DOHH-2 cells assessed as reduction in cell viability incubated for 72 hrs by CCK-8 assay; format: functional, cell-based; conditions: DOHH-2, 72 h
Ramos = experiment: Antiproliferative activity against human Ramos cells assessed as reduction in cell viability incubated for 72 hrs by CCK-8 assay
Raji = experiment: Antiproliferative activity against human Raji cells assessed as reduction in cell viability incubated for 72 hrs by CCK-8 assay; format: functional, cell-based
[8] = Antiproliferative activity against human MINO cells assessed as reduction in cell viability incubated for 72 hrs by CCK-8 assay
L1210 = experiment: Antiproliferative activity against mouse L1210 cells assessed as reduction in cell viability incubated for 72 hrs by CCK-8 assay; format: functional, cell-based; conditions: L1210, 72 h
[9] = system: Friend leukemia cell line; experiment: Antiproliferative activity against mouse Friend leukemia cell line assessed as reduction in cell viability incubated for 72 hrs by CCK-8 assay; format: functional, cell-based
BaF3 = experiment: Antiproliferative activity against mouse BaF3 cells assessed as reduction in cell viability incubated for 72 hrs by CCK-8 assay; format: functional, cell-based; conditions: BaF3, 72 h
EL4 = experiment: Antiproliferative activity against mouse EL4 cells assessed as reduction in cell viability incubated for 72 hrs by CCK-8 assay; format: functional, cell-based; conditions: EL4, 72 h
[10] = Terminal half life in ICR mouse at 6 mg/kg, iv measured after 24 hrs by LC-MS/MS analysis; format: ADME, organism-based; conditions: in vivo
[11] = Terminal half life in ICR mouse at 60 mg/kg, po measured after 24 hrs by LC-MS/MS analysis; format: ADME, organism-based; conditions: in vivo, read-out: beta t1/2 (converted)
[12] = Tmax in ICR mouse at 60 mg/kg, po measured after 24 hrs by LC-MS/MS analysis; format: ADME, organism-based; conditions: in vivo
[13] = Cmax in ICR mouse at 60 mg/kg, po measured after 24 hrs by LC-MS/MS analysis; format: ADME, organism-based; conditions: in vivo
[14] = AUC(0 to t) in ICR mouse at 6 mg/kg, iv measured after 24 hrs by LC-MS/MS analysis; format: ADME, organism-based; conditions: in vivo
[15] = AUC(0 to t) in ICR mouse at 60 mg/kg, po measured after 24 hrs by LC-MS/MS analysis; format: ADME, organism-based; conditions: in vivo
[16] = AUC(0 to infinity) in ICR mouse at 6 mg/kg, iv measured after 24 hrs by LC-MS/MS analysis; format: ADME, organism-based; conditions: in vivo
[17] = AUC(0 to infinity) in ICR mouse at 60 mg/kg, po measured after 24 hrs by LC-MS/MS analysis; format: ADME, organism-based; conditions: ICR, in vivo
[18] = Apparent volume of distribution in ICR mouse at 6 mg/kg, iv measured after 24 hrs by LC-MS/MS analysis; format: ADME, organism-based; conditions: in vivo
[19] = Oral bioavailability in ICR mouse at 60 mg/kg measured after 24 hrs by LC-MS/MS analysis; format: ADME, organism-based; conditions: in vivo
MV4-11 [20] = experiment: Antitumor activity against human MV4-11 cells xenografted in BALB/c nude mouse assessed as tumor growth inhibition at 10 mg/kg, ip administered once daily for 14 days relative to control; format: functional; conditions: MV4-11, 336 h, time 14 day, read-out: TGI
MV4-11 [21] = experiment: Antitumor activity against human MV4-11 cells xenografted in BALB/c nude mouse assessed as tumor growth inhibition at 20 mg/kg, ip administered once daily for 14 days relative to control; format: functional; conditions: MV4-11, 336 h, time 14 day, read-out: TGI
MV4-11 [22] = experiment: Antitumor activity against human MV4-11 cells xenografted in BALB/c nude mouse assessed as tumor growth inhibition at 60 mg/kg, po administered once daily for 14 days relative to control; format: functional; conditions: MV4-11, 336 h, time 14 day, read-out: TGI
[23] = Toxicity in BALB/c nude mouse xenografted with human MV4-11 cells assessed as change in body weight at 10 to 20 mg/kg, ip administered only daily for 14 days and measured twice a week; format: organism-based; conditions: in vivo, 336 h, dose 10-20 mg/kg, time 14 day
[24] = Toxicity in BALB/c nude mouse xenografted with human MV4-11 cells assessed as change in body weight at 60 mg/kg, po administered only daily for 14 days and measured twice a week; format: organism-based; conditions: in vivo, 336 h, time 14 day
MV4-11 [25] = experiment: Antiproliferative activity against human MV4-11 cells assessed as reduction in cell viability incubated for 72 hrs in presence of chidamide by CCK-8 assay; format: functional, cell-based; conditions: MV4-11, 72 h

Compound: COc1ncc(-c2cc(OCCCOc3ccc(C(=O)Nc4ccccc4N)cc3)c3ncnc(C)c3c2)cc1NS(=O)(=O)c1ccc(F)cc1F
- pIC50 (MV4-11 [1]): 6.41
- pIC50 [2]: 9.41
- pIC50 (Histone deacetylase 1): 7.02

Compound: Cc1nc(NC(=O)N2CCC[C@H]2C(N)=O)sc1-c1ccnc(C(C)(C)C(F)(F)F)c1 [ALPELISIB]
- pIC50 (MV4-11 [1]): 5.46
- pIC50 (MV4-11 [25]): 6.72

Compound: Nc1cc(C(F)(F)F)c(-c2cc(N3CCOCC3)nc(N3CCOCC3)n2)cn1 [BUPARLISIB]
- pIC50 (MV4-11 [1]): 6.25
- pIC50 (NB-4): 6.12
- pIC50 (HL-60): 5.92
- pIC50 (DOHH-2): 5.85
- pIC50 (Ramos): 5.27
- pIC50 (Raji): 6.00
- pIC50 [8]: 5.82
- pIC50 (L1210): 6.43
- pIC50 [9]: 6.09
- pIC50 (BaF3): 5.32
- pIC50 (EL4): 6.07

Compound: O=C(CCCCCCC(=O)Nc1ccccc1)NO [VORINOSTAT]
- pIC50 (BaF3): 6.10

Continued by rising pIC50 (MV4-11 [1]), values first:

- pIC50 (MV4-11 [1]): 6.39
- pIC50 [2]: 9.24
- pIC50 (Histone deacetylase 1): 7.25
Compound: COc1ncc(-c2cc(OCCOc3ccc(C(=O)Nc4ccccc4N)cc3)c3ncnc(C)c3c2)cc1NS(=O)(=O)c1ccc(F)cc1F

- pIC50 (MV4-11 [1]): 7.30
- pIC50 [3]: 9.21
- pIC50 [4]: 7.82
- pIC50 [5]: 8.74
- pIC50 [6]: 8.02
- pIC50 (Histone deacetylase 2): 7.07
- pIC50 (Histone deacetylase 3): 8.18
- pIC50 (Histone deacetylase 4): < 5.00
- pIC50 [7]: < 5.00
- pIC50 (Histone deacetylase 8): < 5.00
- pIC50 (Histone deacetylase 11): 5.45
- pIC50 (HL-60): 6.48
- pIC50 (Ramos): 5.30
- pIC50 (Raji): 5.34
- pIC50 (L1210): 6.07
- pIC50 [9]: 6.49
- pIC50 (BaF3): 7.10
- beta t1/2 [10]: 2.43 h
- half-life [11]: 4.46 h
- Tmax [12]: 0.25 h
- Cmax [13]: 306 ng/mL
- AUC(0-t) at 24 h [14]: 4880 ng·h/mL
- AUC(0-t) at 24 h [15]: 1230 ng·h/mL
- AUC [16]: 4930 ng·h/mL
- AUC(0-inf) [17]: 1710 ng·h/mL
- Vz [18]: 4.27 L/kg
- bioavailability [19]: 3.5%
- pIC50 [2]: 9.59
- pIC50 (Histone deacetylase 1): 7.55
Compound: COc1ncc(-c2cc(OCCCc3ccc(C(=O)Nc4ccccc4N)cc3)c3ncnc(C)c3c2)cc1NS(=O)(=O)c1ccc(F)cc1F
- pIC50 (NB-4): 6.43
- pIC50 (DOHH-2): 5.28
- pIC50 [8]: 5.18
- pIC50 (EL4): 6.08
- inhibition in vivo at 10 mg/kg (MV4-11 [20]): 50%
- inhibition in vivo at 20 mg/kg (MV4-11 [21]): 60.7%
- inhibition in vivo at 60 mg/kg (MV4-11 [22]): 64.3%
- Activity [23]: Non-Toxic
- Activity [24]: Non-Toxic

- pIC50 (MV4-11 [1]): 7.70
- pIC50 [2]: 9.55
- pIC50 (Histone deacetylase 1): 6.28
Compound: COc1ncc(-c2cc(OCCCCCCCC(=O)Nc3ccccc3N)c3ncnc(C)c3c2)cc1NS(=O)(=O)c1ccc(F)cc1F

- pIC50 (MV4-11 [1]): 8.00
- pIC50 [2]: 9.68
- pIC50 (Histone deacetylase 1): 5.88
Compound: COc1ncc(-c2cc(OCCCCCC(=O)Nc3ccccc3N)c3ncnc(C)c3c2)cc1NS(=O)(=O)c1ccc(F)cc1F
